Assay results reported in patent US4472304A, “(Amido)N-substituted bleomycins, salts thereof and process for preparation thereof” (Nippon Kayaku Kabushiki Kaisha, priority 1981, dated 1984).

What was measured:
[1] = test system: Mycobacterium smegmatis ATCC 607; assay: Antimicrobial activity against Mycobacterium smegmatis ATCC 607 (agar plate-cylinder); type: cell-based; settings: standard bleomycin A2 (copper-free) assumed 1,000 mcg potency/mg
Description: (§1) 2. ANT[…] MYC[…] ATCC 607 AND BACILLUS SUBTILIS
(§2) The antimicrobial activity was tested against the captioned test organisms by the method of agar plate-cylinder. The activity was recorded on the assumption that the activity of standard sample of bleomycin A2 (copper-free form) is 1,000 mcg poteney/mg.

Bacillus subtilis = assay: Antimicrobial activity against Bacillus subtilis (agar plate-cylinder); type: cell-based; settings: standard bleomycin A2 (copper-free) assumed 1,000 mcg potency/mg
Description: as §1, §2

HeLa S3 cells = assay: Growth inhibitory activity against cultured HeLa S3 cells; type: cell-based; settings: 3 days
Description: 3. GROWTH INHIBITORY ACTIVITY AGAINST CULTURED HELA S3 CELLS
HeLa S3 cells were inoculated into a medium (MEM with 10% bovine serum) placed in a plastic petri dish. Two days thereafter, a bleomycin was added to the dish. After 3 days of breeding, the number of cells were counted. The percentage growth inhibition was calculated using the following equation:
Percentage inhibition (%)=100×(B-A)/(B-C) where A is the final number of cells after 3 days from the addition of test sample, B is the final number of cells in the control without addition of the test smaple, and C is the number of cells at the time of addition of the test sample.

pulmonary fibrosis = assay: Pulmonary toxicity (pulmonary fibrosis) in mice; settings: for Incidence: Number of mice with pulmonary fibrosis (%) / Incidence: Number of mice with pulmonary fibrosis / Grade: Total score of pulmonary fibrosis/total number of samples / Grade: Total score of pulmonary fibrosis/total number of samples (%): ICR mice, 5 mg/kg i.p. once a day for 10 days; for Incidence: Number of mice with pulmonary fibrosis (%) / Incidence: Number of mice with pulmonary fibrosis: 5 weeks observation; for Incidence: Number of mice with pulmonary fibrosis: mice with fibrosis/total; for Grade: Total score of pulmonary fibrosis/total number of samples / Grade: Total score of pulmonary fibrosis/total number of samples (%): points 0, 1, 2, 4, 6; for Ratio (by comparison with "Bleomycin Complex"): versus Bleomycin Complex

Compound	Antimicrobial potency of Cu-free compound against Mycobacterium smegmatis ATCC 607 [1] [mcg potency/mg]	Antimicrobial potency of Cu-free compound against Bacillus subtilis (Bacillus subtilis) [mcg potency/mg]	50% Growth inhibitory concentration of Cu-free compd. against cultured HeLaS3 cells (ID50) (HeLa S3 cells) [µg/mL]	Incidence: Number of mice with pulmonary fibrosis (%) (pulmonary fibrosis)	Incidence: Number of mice with pulmonary fibrosis (pulmonary fibrosis)	Grade: Total score of pulmonary fibrosis/total number of samples (pulmonary fibrosis)	Grade: Total score of pulmonary fibrosis/total number of samples (%) (pulmonary fibrosis)	Ratio (by comparison with "Bleomycin Complex") (pulmonary fibrosis)
3-((S)-1'-phenylethylamino)propylamino-(amido)N--[1,6-dimethyl-heptyl]-BLM [Compound 32]	39956	298	0.83	–	–	–	–	–
CCCCCCCCNC(=O)C(N)CNC(CC(N)=O)c1nc(N)c(C)c(C(=O)NC(C(=O)NC(C)C(O)C(C)C(=O)NC(C(=O)NCCc2nc(-c3nc(C(=O)NCCC[N+](C)(CCCN(Cc4ccccc4)Cc4ccccc4)Cc4ccccc4)cs3)cs2)C(C)O)C(OC2OC(CO)C(O)C(O)C2OC2OC(CO)C(O)C(OC(N)=O)C2O)c2cnc[nH]2)n1 (stereo not shown) [Compound 48, 3-{N--methyl-N--benzyl-N--[3-dibenzylamino)proplyamino}-propylamino-(amido)N--[octyl]-BLM]	2580	130	–	0	0/8	0/24	0	0
Cc1c(N)nc(C(CC(N)=O)NCC(N)C(=O)NCCC[N+](C)(CCCN(Cc2ccccc2)Cc2ccccc2)Cc2ccccc2)nc1C(=O)NC(C(=O)NC(C)C(O)C(C)C(=O)NC(C(=O)NCCc1nc(-c2nc(C(=O)NCCC[N+](C)(CCCN(Cc3ccccc3)Cc3ccccc3)Cc3ccccc3)cs2)cs1)C(C)O)C(OC1OC(CO)C(O)C(O)C1OC1OC(CO)C(O)C(OC(N)=O)C1O)c1cnc[nH]1 (stereo not shown) [Compound 49, 3-{N--methyl-N--benzyl-N--[3-(dibenzylamino)propylamino}-propylamino-(amido)N--{3-{N--methyl-N--benzyl-N--[3-dibenzyl-amino)propyl]amino}propyl}-BLM]	230	1	–	0	0/3	0/9	0	0
Cc1c(N)nc(C(CC(N)=O)NCC(N)C(=O)NCc2ccccc2)nc1C(=O)NC(C(=O)NC(C)C(O)C(C)C(=O)NC(C(=O)NCCc1nc(-c2nc(C(=O)NCCC[N+](C)(CCCN(Cc3ccccc3)Cc3ccccc3)Cc3ccccc3)cs2)cs1)C(C)O)C(OC1OC(CO)C(O)C(O)C1OC1OC(CO)C(O)C(OC(N)=O)C1O)c1cnc[nH]1 (stereo not shown) [Compound 51, 3-{N--methyl-N--benzyl-N--[3-(dibenzylamino)propyl]amino}-propylamino-(amido)N--[benzyl]-BLM]	24461	410	–	0	0/8	0/24	0	0
CCCCN(CCCC)CCCNC(=O)C(N)CNC(CC(N)=O)c1nc(N)c(C)c(C(=O)NC(C(=O)NC(C)C(O)C(C)C(=O)NC(C(=O)NCCc2nc(-c3nc(C(=O)NCCC[N+](C)(C)CCCN(Cc4ccccc4)Cc4ccccc4)cs3)cs2)C(C)O)C(OC2OC(CO)C(O)C(O)C2OC2OC(CO)C(O)C(OC(N)=O)C2O)c2cnc[nH]2)n1 (stereo not shown) [Compound 54]	32633	2663	–	0	0/9	0/27	0	0
CC[N+](CC)(CCCNC(=O)c1csc(-c2csc(CCNC(=O)C(NC(=O)C(C)C(O)C(C)NC(=O)C(NC(=O)c3nc(C(CC(N)=O)NCC(N)C(=O)NCCCNC(C)c4ccccc4)nc(N)c3C)C(OC3OC(CO)C(O)C(O)C3OC3OC(CO)C(O)C(OC(N)=O)C3O)c3cnc[nH]3)C(C)O)n2)n1)CCCN(Cc1ccccc1)Cc1ccccc1 [Compound 55, 3-{N,N--diethyl-N--[3-(dibenzylamino)propyl]amino}-propyl-amino-(amido)N--[3-((S)-1'-phenylethyl)aminopropyl]-BLM]	20840	2150	–	0	0/9	0/27	0	0
CCCCCCCCNC(=O)C(N)CNC(CC(N)=O)c1nc(N)c(C)c(C(=O)NC(C(=O)NC(C)C(O)C(C)C(=O)NC(C(=O)NCCc2nc(-c3nc(C(=O)NCCC[N+](CC)(CC)CCCN(Cc4ccccc4)Cc4ccccc4)cs3)cs2)C(C)O)C(OC2OC(CO)C(O)C(O)C2OC2OC(CO)C(O)C(OC(N)=O)C2O)c2cnc[nH]2)n1 (stereo not shown) [Compound 56, 3-{N,N--diethyl-N--[3-(dibenzylamino)propyl]amino}propylamino-(amido)N--[octyl]-BLM]	41380	520	–	0	0/9	0/27	0	0
CCCCN(CCCC)CCCNC(=O)C(N)CNC(CC(N)=O)c1nc(N)c(C)c(C(=O)NC(C(=O)NC(C)C(O)C(C)C(=O)NC(C(=O)NCCc2nc(-c3nc(C(=O)NCCCN(C)CCCNCC4CCCCCCC4)cs3)cs2)C(C)O)C(OC2OC(CO)C(O)C(O)C2OC2OC(CO)C(O)C(OC(N)=O)C2O)c2cnc[nH]2)n1 (stereo not shown) [Compound 58, 3-[N--methyl-N--[3-(cyclooctylmethylamino)propyl]amino}-propylamino-(amido)N--[3-(di-n-butyamino)propyl]-BLM]	62418	5518	–	0	0/9	0/27	0	0
CCCCCCCCNC(=O)C(N)CNC(CC(N)=O)c1nc(N)c(C)c(C(=O)NC(C(=O)NC(C)C(O)C(C)C(=O)NC(C(=O)NCCc2nc(-c3nc(C(=O)NCCCN(C)CCCNCC4CCCCCCC4)cs3)cs2)C(C)O)C(OC2OC(CO)C(O)C(O)C2OC2OC(CO)C(O)C(OC(N)=O)C2O)c2cnc[nH]2)n1 (stereo not shown) [Compound 59, 3-{N--methyl-N--[3-(cyclooctylmethylamino)propyl]amino}propyl-amino-(amido)N--[octyl]-BLM]	65733	5473	–	0	0/9	0/27	0	0
Cc1c(N)nc(C(CC(N)=O)NCC(N)C(=O)NCCCNC(C)c2ccccc2)nc1C(=O)NC(C(=O)NC(C)C(O)C(C)C(=O)NC(C(=O)NCCc1nc(-c2nc(C(=O)NCCCN(C)CCCNCC3CCCCCCC3)cs2)cs1)C(C)O)C(OC1OC(CO)C(O)C(O)C1OC1OC(CO)C(O)C(OC(N)=O)C1O)c1cnc[nH]1 [Compound 60, 3-{N--methyl-N--[3-(cyclooctylmethyl)aminopropyl]amino}-propylamino-(amido)N--[3-((S)-1'-phenylethylamino)propyl]-BLM]	54345	7273	–	0	0/9	0/27	0	0
CCCCCCCCNC(=O)C(N)CNC(CC(N)=O)c1nc(N)c(C)c(C(=O)NC(C(=O)NC(C)C(O)C(C)C(=O)NC(C(=O)NCCc2nc(-c3nc(C(=O)NCCCN(C)CCCNCc4ccc(C#N)cc4)cs3)cs2)C(C)O)C(OC2OC(CO)C(O)C(O)C2OC2OC(CO)C(O)C(OC(N)=O)C2O)c2cnc[nH]2)n1 (stereo not shown) [Compound 62, 3-{N--methyl-N--[3-(p-cyanobenzylamino)propyl]amino}propylamino-(amido)N--[octyl]-BLM]	49270	381	–	0	0/9	0/27	0	0
